Measurements taken from patent US20260007758A1, “SO[…]-2 RECEPTOR (SST2R) NON-PEPTIDE DRUG CONJUGATES AND USES THEREOF” (Crinetics Pharmaceuticals, Inc., priority 2024, published 2026).
*1 amine or outer side, *2 acyl side, *3 side chain or, on linkers, in order; H or OH if unused. Where a SMILES comes first, the peptide text is derived from it. [ ]: non-standard residue; d: D form. The star is where a group is joined. X3 = Cc1cc(F)cc(-c2cnc(NCCNC(=O)CCOCCOCCOCCOCCC(=O)*)c(-c3nc4ccc(Cl)cc4[nH]3)c2N2CCC(N)CC2)c1; Dolaproine = CO[C@@H]([C@@H]1CCCN1)[C@@H](C)C(=O)O; Dil = CC[C@H](C)[C@H](NC)[C@@H](CC(=O)O)OC; PABC = O=C(OCc1ccc(N[*:1])cc1)[*:2]; X2 = C[C@@H](N*)[C@@H](O)c1ccccc1; Cit = NC(=O)NCCC[C@H](N)C(=O)O; NMeV = CN[C@H](C(=O)O)C(C)C; Ahx = NCCCCCC(=O)O

What was measured:
Assay type in all cases: cell-based
[1] = target: T1, human somatostatin receptor subtype 2 (Homo sapiens, UniProt P30874); experiment: Functional assay for SSTR2 agonists (HTRF cAMP); settings: CHO-K1 cells stably expressing human SST2; NKH477-stimulated cAMP; 20 min at 37 C; read-out: hSST2 cAMP Avg EC50
T1 construct: expressed in transfected cells
T1 sequence (P30874 whole entry): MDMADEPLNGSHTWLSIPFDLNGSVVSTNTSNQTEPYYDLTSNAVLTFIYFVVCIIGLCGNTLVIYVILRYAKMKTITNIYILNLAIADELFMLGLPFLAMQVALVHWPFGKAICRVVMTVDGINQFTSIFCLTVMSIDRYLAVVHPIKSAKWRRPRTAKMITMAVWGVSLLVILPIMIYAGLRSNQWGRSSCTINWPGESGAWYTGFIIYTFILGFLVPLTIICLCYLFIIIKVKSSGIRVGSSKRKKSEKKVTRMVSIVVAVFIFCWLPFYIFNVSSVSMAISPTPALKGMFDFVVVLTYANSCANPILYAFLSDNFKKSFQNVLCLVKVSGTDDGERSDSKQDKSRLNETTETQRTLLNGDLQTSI
From the text: General overview: All five SSTR subtypes are Gi coupled G-protein coupled receptors (GPCRs) that lead to decreases in intracellular cyclic AMP (cAMP) when activated by an agonist. Therefore, measurement of intracellular cAMP levels can be used to assess whether compounds of the invention are agonists of SSTR subtypes (John Kelly, Troy Stevens, W. Joseph Thompson, and Roland Seifert, Current Protocols in Pharmacology. 2005, 2.2.1-2.2). One example of an intracellular cAMP assay is described below.
Four days prior to the assay, 2,000 Chinese hamster ovary cells (CHO-K1, ATCC #CCL-61) stably expressing the human somatostatin receptor subtype 2 are plated in each well of a 96-well tissue culture-treated plate in Ham's F12 growth media (ThermoFisher #10-080-CM) supplemented with 10% donor bovine serum (Gemini Bio-Products #100-506), 100 U/mL penicillin; 100 ug/mL streptomycin, 2 mM L-glutamine (Gemini Bio-Products #400-110) and 0.2 mg/mL hygromycin B (GoldBio #31282-04-9). The cells are cultured at 37° C., 5% CO2 and 95% humidity. cAMP is measured with HTRF dynamic cAMP assay (Cisbio. #62AM5PEJ) per manufacturer's instructions. […] The cells are incubated for 20 minutes at 37° C. (the final concentration of the compounds of the invention are typically 0-10,000 nM). The cells are treated with 50 μL of lysis buffer (HRTF cAMP kit, Cisbio) and incubated at room temperature for 30 minutes with rotary shaking at 600 rpm, and then diluted with 150 μL of stimulation buffer and shaken for an additional five minutes at 300 rpm. The lysate is transferred to 384-well plates and incubated for 1-24 hours at room temperature, and cAMP accumulation is detected by d2-labeled cAMP and Anti-cAMP-Cryptate. The time-resolved fluorescent signal is read using a m1000 Pro (Tecan) or CLARIOStar (BMG Labtech) microplate reader, where the samples are excited with light at 340 nm and emission light is measured at 620 nm and 665 nm. The data is expressed as a calculation of the fluorescence ratio (665 nm/620 nm). The intracellular cAMP concentrations are calculated by regression to a standard curve and are plotted vs, the concentration of the compounds of the invention. The EC50 of the compounds are calculated using standard methods. All data manipulations are in GraphPad Prism v9 (GraphPad, San Diego, CA).

[2] = tested on: NCI-H524 human small cell lung cancer cells; experiment: H524 assay: inhibition of cell proliferation (CellTiter Glo); settings: 2 h treatment, washout, additional 70 h incubation
Experimental: NDCs of the present invention were assessed in an in vitro assay evaluating the inhibition of cell proliferation. NCI-H524 (ATCC) human small cell lung cancer cells were plated in 96-well V-bottom plates (Costar) at a concentration of 5,000 cells/well. 24 h later, the cells were treated for 2 h with a NDC. NDC starting dose was 1 uM and two-fold serial dilutions were done for a total of 11 points. After 2 h of treatment, cells were spun down, and the drug-containing media was removed, and fresh complete media was added and used to resuspend the cells, which were spun again. After removal of the media, the cells were resuspended in complete medium and incubated for an additional 70 h. Cell proliferation was assessed using the CellTiter Glo Assay according to the standard protocol (Promega). Luminescence was measured using a TECAN plate reader. Percent proliferation inhibition was calculated using the following formula: % inhibition=(Luminescence Control−Luminescence Treatment)/Luminescence Control*100. IC50 curves were generated using the nonlinear regression analysis (four-parameter) with GraphPad Prism 9.

SST2 = target: T2, SST2 (Homo sapiens, UniProt P30874); experiment: PathHunter CHO-K1 SST2 Internalization Assay; settings: PathHunter CHO-K1 SST2 cells; 90 min at 37 C; luminescence; read-out: Internalization EC50
T2 construct: host or cells: PathHunter CHO-K1 SST2 cells
T2 sequence (P30874 whole entry): as above
Experimental: NDCs of the present invention were assessed in vitro using the human PathHunter CHO-K1 SST2 β-arrestin2 and PathHunter CHO-K1 SST2 Internalization Assays from DiscoverX. The CHO-K cells were seeded in 20 μLs of cell culture medium in a white-walled 384 well tissue culture-compatible plate at a density of 2500 cells/well. After a 48-hour incubation, cells were treated with 5 μLs of a 1:3 serially diluted SST2 NDC prepared at 5× concentration with a final top compound concentration of 10 uM for 90 min at 37 C and in 5% CO2. 11 dilutions were tested as well as one treatment that was compound free. After incubation, the media containing treatments were discarded and 20 μL of a working solution of Beta-Glo from Promega Beta-Go Assay System was added to each well. The plate was then incubated for 60 min at room temperature in the dark. Luminescence was measured using a Tecan plate reader. IC50 curves were generated using the nonlinear regression analysis (four-parameters) with GraphPad Prism 9. Results were the average of duplicates and are corrected for background.

## CC[C@H](C)[C@@H]([C@@H](CC(=O)N1CCC[C@H]1[C@H](OC)[C@@H](C)C(=O)N[C@H](C)[C@@H](O)c1ccccc1)OC)N(C)C(=O)[C@@H](NC(=O)[C@H](C(C)C)N(C)C(=O)OCc1ccc(NC(=O)[C@H](CCCNC(N)=O)NC(=O)[C@@H](NC(=O)C[C@@H](N)C(=O)NCCOCCNC(=O)c2cc(NCCOCCC(=O)NCCNc3ncc(-c4cc(C)cc(F)c4)c(N4CCC(N)CC4)c3-c3nc4ccc(Cl)cc4[nH]3)cc(C(=O)NCC(=O)O)c2)C(C)C)cc1)C(C)C [Compound 163]
[1]
  EC50: 0.15 nM
[2]
  EC50: 67 nM
SST2
  EC50: 6.3 nM

## CC[C@H](C)[C@@H]([C@@H](CC(=O)N1CCC[C@H]1[C@H](OC)[C@@H](C)C(=O)N[C@H](C)[C@@H](O)c1ccccc1)OC)N(C)C(=O)[C@@H](NC(=O)[C@H](C(C)C)N(C)C(=O)OCc1ccc(NC(=O)[C@H](C)NC(=O)[C@@H](NC(=O)CCOCCC(=O)NCCNc2ncc(-c3cc(C)cc(F)c3)c(N3CCC(N)CC3)c2-c2nc3cnccc3[nH]2)C(C)C)c(O[C@@H]2O[C@H](C(=O)O)[C@@H](O)[C@H](O)[C@H]2O)c1)C(C)C [Compound 127]
[1]
  EC50: 1.6 nM
[2]
  EC50: 170 nM
SST2
  EC50: 290 nM

## CC[C@H](C)[C@@H]([C@@H](CC(=O)N1CCC[C@H]1[C@H](OC)[C@@H](C)C(=O)N[C@H](C)[C@@H](O)c1ccccc1)OC)N(C)C(=O)[C@@H](NC(=O)[C@H](C(C)C)N(C)C(=O)OCc1ccc(NC(=O)[C@H](C)NC(=O)[C@@H](NC(=O)CCOCCC(=O)N(C)CC(=O)NCCNc2ncc(-c3cc(C)cc(F)c3)c(N3CCC(N)CC3)c2-c2cc3ccc(Cl)cc3[nH]2)C(C)C)c(O[C@@H]2O[C@H](C(=O)NCCN)[C@@H](O)[C@H](O)[C@H]2O)c1)C(C)C [Compound 47]
[1]
  EC50: 0.31 nM

## CC[C@H](C)[C@@H]([C@@H](CC(=O)N1CCC[C@H]1[C@H](OC)[C@@H](C)C(=O)N[C@H](C)[C@@H](O)c1ccccc1)OC)N(C)C(=O)[C@@H](NC(=O)[C@H](C(C)C)N(C)C(=O)OCc1ccc(NC(=O)[C@H](CCCNC(N)=O)NC(=O)[C@@H](NC(=O)CCOCCC(=O)NCCNc2ncc(-c3cc(C)cc(F)c3)c(N3CCC(N)CC3)c2-c2nc3ccc(Cl)cc3[nH]2)C(C)C)cc1C(=O)O)C(C)C [Compound 7]
[1]
  EC50: 0.26 nM

## CC[C@H](C)[C@@H]([C@@H](CC(=O)N1CCC[C@H]1[C@H](OC)[C@@H](C)C(=O)N[C@H](C)[C@@H](O)c1ccccc1)OC)N(C)C(=O)[C@@H](NC(=O)[C@H](C(C)C)N(C)C(=O)OCc1ccc(NC(=O)[C@H](CCCNC(N)=O)NC(=O)[C@@H](NC(=O)CCOCCC(=O)NCCNc2ncc(-c3cc(C)cc(F)c3)c(N3CCC(N)CC3)c2-c2nc3ccc(Cl)cc3[nH]2)C(C)C)cc1C(=O)NCC(=O)O)C(C)C [Compound 60]
[1]
  EC50: 0.17 nM

## CC[C@H](C)[C@@H]([C@@H](CC(=O)N1CCC[C@H]1[C@H](OC)[C@@H](C)C(=O)N[C@H](C)[C@@H](O)c1ccccc1)OC)N(C)C(=O)[C@@H](NC(=O)[C@H](C(C)C)N(C)C(=O)OCc1ccc(NC(=O)[C@H](C)NC(=O)[C@@H](NC(=O)CCOCCC(=O)N(C)CC(=O)NCCNc2ncc(-c3cc(C)cc(F)c3)c(N3CCC(N)CC3)c2-c2cc3ccc(Cl)cc3[nH]2)C(C)C)c(O[C@@H]2O[C@H](C(=O)NCCN)[C@@H](O)[C@H](O)[C@H]2O)c1)C(C)C [Compound 46]
[1]
  EC50: 0.23 nM

## CC[C@H](C)[C@@H]([C@@H](CC(=O)N1CCC[C@H]1[C@H](OC)[C@@H](C)C(=O)N[C@H](C)[C@@H](O)c1ccccc1)OC)N(C)C(=O)[C@@H](NC(=O)[C@H](C(C)C)N(C)C(=O)OCc1ccc(NC(=O)[C@H](CCCNC(N)=O)NC(=O)[C@@H](NC(=O)CCCCCNC(=O)[C@H](CCC(N)=O)NC(=O)[C@H](CCC(N)=O)NC(=O)CCOCCOCCOCCOCCC(=O)NCCNc2ncc(-c3cc(C)cc(F)c3)c(N3CCC(N)CC3)c2-c2nc3ccc(Cl)cc3[nH]2)C(C)C)cc1)C(C)C [Compound 143] (X3-QQ[Ahx]V[Cit][PABC][NMeV]V[Dil][Dolaproine]-X2)
[1]
  EC50: 0.4 nM

## CC[C@H](C)[C@@H]([C@@H](CC(=O)N1CCC[C@H]1[C@H](OC)[C@@H](C)C(=O)N[C@H](C)[C@@H](O)c1ccccc1)OC)N(C)C(=O)[C@@H](NC(=O)[C@H](C(C)C)N(C)C(=O)OCc1ccc(O[C@@H]2O[C@H](C(=O)O)[C@@H](O)[C@H](O)[C@H]2O)c(NC(=O)[C@H](CCCNC(N)=O)NC(=O)[C@@H](NC(=O)CCOCCC(=O)NCCNc2ncc(-c3cc(C)cc(F)c3)c(N3CCC(N)CC3)c2-c2nc3ccc(Cl)cc3[nH]2)C(C)C)c1)C(C)C [Compound 248]
[2]
  EC50: 3.2 nM

## CC[C@H](C)[C@@H]([C@@H](CC(=O)N1CCC[C@H]1[C@H](OC)[C@@H](C)C(=O)N[C@H](C)[C@@H](O)c1ccccc1)OC)N(C)C(=O)[C@@H](NC(=O)[C@H](C(C)C)N(C)C(=O)OCc1ccc(NC(=O)[C@H](CCCNC(N)=O)NC(=O)[C@@H](NC(=O)CCCC(=O)N(C)CC(=O)N(C)CC(=O)N(C)CC(=O)NCCNc2ncc(-c3cc(C)cc(F)c3)c(N3CCC(N)CC3)c2-c2nc3ccc(Cl)cc3[nH]2)C(C)C)c(O[C@@H]2O[C@H](C(=O)O)[C@@H](O)[C@H](O)[C@H]2O)c1)C(C)C [Compound 130]
[2]
  EC50: 3800 nM

## CC[C@H](C)[C@@H]([C@@H](CC(=O)N1CCC[C@H]1[C@H](OC)[C@@H](C)C(=O)N[C@H](C)[C@@H](O)c1ccccc1)OC)N(C)C(=O)[C@@H](NC(=O)[C@H](C(C)C)N(C)C(=O)OCc1ccc(NC(=O)[C@H](C)NC(=O)[C@@H](NC(=O)C[C@@H](N)C(=O)NCCOCCC(=O)NCCNc2ncc(-c3cc(C)cc(F)c3)c(N3CCC(NC)CC3)c2-c2nc3ccc(Cl)cc3[nH]2)C(C)C)c(O[C@@H]2O[C@H](C(=O)O)[C@@H](O)[C@H](O)[C@H]2O)c1)C(C)C [Compound 135]
[1]
  EC50: 0.42 nM
SST2
  EC50: 3.6 nM

## CC[C@H](C)[C@@H]([C@@H](CC(=O)N1CCC[C@H]1[C@H](OC)[C@@H](C)C(=O)N[C@H](C)[C@@H](O)c1ccccc1)OC)N(C)C(=O)[C@@H](NC(=O)[C@H](C(C)C)N(C)C(=O)OCc1ccc(NC(=O)[C@H](C)NC(=O)[C@@H](NC(=O)CCCC(=O)N(C)CC(=O)NCCNc2ncc(-c3cc(C)cc(F)c3)c(N3CCC(N)CC3)c2-c2nc3ccc(Cl)cc3[nH]2)C(C)C)c(O[C@@H]2O[C@H](C(=O)NCCN)[C@@H](O)[C@H](O)[C@H]2O)c1)C(C)C [Compound 45]
[1]
  EC50: 1.3 nM

## CC[C@H](C)[C@@H]([C@@H](CC(=O)N1CCC[C@H]1[C@H](OC)[C@@H](C)C(=O)N[C@H](C)[C@@H](O)c1ccccc1)OC)N(C)C(=O)[C@@H](NC(=O)[C@H](C(C)C)N(C)C(=O)OCc1ccc(NC(=O)[C@H](CCCNC(N)=O)NC(=O)[C@@H](NC(=O)CCOCCC(=O)NCCNc2ncc(-c3cc(C)cc(F)c3)c(N3CCC(N)CC3)c2-c2nc3ccc(Cl)cc3[nH]2)C(C)C)c(O[C@@H]2O[C@H](C(=O)NCCNC(=O)CCCCCCCCCCCCCCC(=O)O)[C@@H](O)[C@H](O)[C@H]2O)c1)C(C)C [Compound 53]
[1]
  EC50: 0.48 nM
[2]
  EC50: 200 nM
